Source: ChEMBL document CHEMBL1127281, “Synthesis and anti-herpes activity of some a-ring functionalized dehydroabietane derivatives” (Bioorg Med Chem Lett, 1994)
≈ marks a conversion by molar mass, not a printed value.

System: Vero
Experiment: Concentration required for 50% inhibition of herpes simplex virus 2 (HSV-2) using standard plaque reduction assay in vero cells
Format: functional, cell-based
Details: Chlorocebus sabaeus

`C[C@]12CC[C@]3(C1)[C@H](CC2=O)C[C@@H](OC(=O)c1ccccc1)[C@H]1[C@](C)(C(=O)O)CCC[C@@]13C` [SCOPADULCIC ACID B] gave an IC50 of 0.2 µg/mL (≈ 0.456 µM).

System: not listed separately
Experiment: Concentration required for 50% inhibition of herpes simplex virus 2(HSV-2) using standard plaque reduction assay in vero cells
Format: functional, cell-based
Details: Chlorocebus sabaeus

Compared with `CC(C)c1ccc2c(c1)CC[C@H]1C(=O)[C@@H](O)CC[C@]21C`, `C=C1[C@@H](O)CC[C@]2(C)c3ccc(C(C)C)cc3CC[C@@H]12` is 2.7-fold lower in IC50: 8 µg/mL (≈ 29.4 µM) for the first, 3 µg/mL (≈ 11.1 µM) for the second.

`CC(C)c1ccc2c(c1)CC[C@H]1[C@](C)(Sc3ccccn3)CCC[C@]21C` and `CC(C)c1ccc2c(c1)CC[C@H]1[C@](C)(C(=O)O)CCC[C@]21C` [DEHYDROABIETIC ACID] are the same in IC50: 20 µg/mL (≈ 54.7 µM) for the first, 20 µg/mL (≈ 66.6 µM) for the second.

First: C[C@@]1(CO)[C@H](O)CC[C@@]2(C)[C@H]1CCC1C[C@@H]3C[C@@]12CC[C@]3(O)CO (stereo partly drawn)
Second: CC(C)c1ccc2c(c1)CC[C@H]1[C@@](O)(CO)[C@@H](O)CC[C@]21C
The IC50 of the first is 45-fold lower: 0.2 µg/mL (≈ 0.591 µM) for the first, 9 µg/mL (≈ 29.6 µM) for the second.

`C=C1CCC[C@]2(C)c3ccc(C(C)C)cc3CC[C@@H]12` and `CC(C)c1ccc2c(c1)CC[C@H]1C(=O)CCC[C@]21C` are within 1.5-fold of each other in IC50: 10 µg/mL (≈ 39.3 µM) for the first, 14 µg/mL (≈ 54.6 µM) for the second.

`CC(C)c1ccc2c(c1)CC[C@H]1[C@@H](CO)[C@@H](O)CC[C@]21C` and `CC(C)c1ccc2c(c1)CC[C@H]1[C@H](O)[C@@H](O)CC[C@]21C` are within 1.5-fold of each other in IC50: 20 µg/mL (≈ 69.3 µM) for the first, 19 µg/mL (≈ 69.2 µM) for the second.

`CC(C)c1ccc2c(c1)CC[C@H]1[C@]3(CCC[C@]21C)CO3` and `CC(C)c1ccc2c(c1)CC[C@H]1[C@@](O)(CO)CCC[C@]21C` are within 1.5-fold of each other in IC50: 20 µg/mL (≈ 74 µM) for the first, 14 µg/mL (≈ 48.5 µM) for the second.

Going from `CC(C)c1ccc2c(c1)CC[C@H]1[C@@H](CO)CCC[C@]21C` to `CC(C)c1ccc2c(c1)CC[C@H]1[C@@H](O)CCC[C@]21C`, the IC50 rises from 9 µg/mL (≈ 33 µM) to 15 µg/mL (≈ 58 µM) (1.7-fold).

Going from `Nc1nc2c(ncn2COCCO)c(=O)[nH]1` [ACYCLOVIR] to `CC(C)c1ccc2c(c1)CC[C@H]1[C@](C)(CO)CCC[C@]21C` [POMIFERIN A], the IC50 rises from 1.5 µg/mL (≈ 6.66 µM) to 17 µg/mL (≈ 59.3 µM) (11-fold).

For `COC(=O)[C@]1(C)CCC[C@]2(C)c3ccc(C(C)C)cc3CC[C@@H]12` [METHYL DEHYDROABIETATE], the IC50 was 20 µg/mL (≈ 63.6 µM).
